Experimental data: US7030125B2, “Isothiazole and isoxazole compounds as transforming growth factor (TGF) inhibitors” (Pfizer, Inc., priority 2002, dated 2006)

Biological target: T1, ALK-5 (TβRI) (Homo sapiens, UniProt P36897)
T1 construct: using either the kinase domain of ALK5 with Smad3 as substrate; GST
T1 sequence (P36897 205-495 limits assumed): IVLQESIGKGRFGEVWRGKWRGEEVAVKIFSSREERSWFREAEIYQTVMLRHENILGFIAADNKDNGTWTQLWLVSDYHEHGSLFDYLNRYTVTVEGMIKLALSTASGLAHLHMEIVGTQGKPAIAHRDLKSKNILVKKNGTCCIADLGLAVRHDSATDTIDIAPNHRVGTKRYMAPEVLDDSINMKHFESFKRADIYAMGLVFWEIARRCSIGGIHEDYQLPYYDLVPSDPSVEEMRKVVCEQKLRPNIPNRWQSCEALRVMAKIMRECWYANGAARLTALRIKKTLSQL
Assay: ALK-5 (TβRI) Kinase Assay
Format: biochemical
Details: GST-ALK5 with GST-Smad3 as substrate; read-out: TβRIIC50 value
Procedure: The kinase assays were performed with 65 nM GST-ALK5 and 84 nM GST-Smad3 in 50 mM HEPES, 5 mM MgCl2, 1 mM CaCl2, 1 mM dithiothreitol, and 3_M ATP. Reactions were incubated with 0.5_Ci of [33 P]_ATP for 3 h at 30° C. Phosphorylated protein was captured on P-81 paper (Whatman, Maidstone, England), washed with 0.5% phosphoric acid, and counted by liquid scintillation. Alternatively, Smad3 or Smad1 protein was also coated onto FlashPlate Sterile Basic Microplates (PerkinElmer Life Sciences, Boston, Mass.). Kinase assays were then performed in Flash-Plates with same assay conditions using either the kinase domain of ALK5 with Smad3 as substrate or the kinase domain of ALK6 (BMP receptor) with Smad1 as substrate. Plates were washed three times with phosphate buffer and counted by TopCount (Packard Bio-science, Meriden, Conn.). (Laping, N.J. et al. Molecular Pharmacology 62:58–64 (2002)).

IC50: ~118 nM
Compound: COc1ccc2nccc(-c3conc3-c3cccc(C)n3)c2c1 [Example 5, 6-Methoxy-4-[3-(6-methyl-pyridin-2-yl)-isoxazol-4-yl]-quinoline]
